Experimental data published in US12138256B2, “Treatment of cardiopulmonary disorders” (Bayer Aktiengesellschaft, priority 2021, dated 2024).
Where two headings read alike, the source gives them in different places.

Assay: Protein binding, minipig plasma (fraction unbound)
Format: in vitro ADME
Excerpt: The distribution of a test substance between Transil® (phosphatidylcholine lipid bilayers immobilized on silica beads) and plasma is a characteristic feature of any pharmaceutical compound and is dependent on its extent of binding to plasma proteins. By comparing the distribution between Transil® and buffer with the distribution between Transil® and plasma of any species of interest, the unbound fraction in the plasma of the respective animal species can be calculated in vitro. The respective plasma and buffer concentrations were determined via a radioactivity analysis. A detailed description of the method and its validation was published by Schuhmacher et al. (2).

Compound `O=C(O)c1ccc(CCN(CCc2ccccc2OCc2ccc(-c3ccc(C(F)(F)F)cc3)cc2Cl)[C@H]2CCCc3nc(C(=O)O)ccc32)cc1` [comparative example 11, (5S)-5-{[2-(4-carboxyphenyl)ethyl][2-(2-{[3-chloro-4′-(trifluoromethyl)[biphenyl]-4-yl]methoxy}phenyl)ethyl]amino}-5,6,7,8-tetrahydroquinoline-2-carboxylic acid] has a fraction unbound (Minipig (female) plasma, read-out: Fraction unbound) of 0.00348 and a fraction unbound (plasma (Transil beads), minipig plasma, read-out: plasma fu (fraction unbound)) of 0.00348.
